{"source": "patent US20170128518A1", "about": "“METHODS AND MATERIALS FOR IDENTIFYING AND TREATING MAMMALS RESISTANT TO PROTEASOME INHIBITOR TREATMENTS” (Mayo Foundation for Medical Education and Research, priority 2014, published 2017)", "key": {"[1]": {"target": "T1, 20S proteasome b5 subunit (Homo sapiens, UniProt P28074)", "T1 construct": "Cells were lysed at 4×10^6 cells/ml in proteasomal activity assay buffer; endogenous in cells; host or cells: BCWM.1, MWCL-1, RPCI-WM1 and their BR subclones (lysates)", "T1 sequence (P28074 60-263)": "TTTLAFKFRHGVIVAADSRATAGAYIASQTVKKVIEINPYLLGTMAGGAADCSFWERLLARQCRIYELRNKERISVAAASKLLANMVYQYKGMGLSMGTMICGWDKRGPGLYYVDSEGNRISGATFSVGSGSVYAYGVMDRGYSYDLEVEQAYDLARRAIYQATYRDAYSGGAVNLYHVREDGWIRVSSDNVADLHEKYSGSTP", "experiment": "Proteasomal activity assay, chymotrypsin-like (LLVY-AMC), WM cells", "type": "biochemical", "conditions": "10 nmol/l; WT and BR WM cells", "experimental": "FIGS. 10A and 10B are a series of graphs plotting the effect of b-AP15 treatment on 20S proteasome, b5-subunit (chymotrypsin-like) catalytic activity in WT and BR WM cells.\nCells were lysed at 4×10^6 cells/ml in proteasomal activity assay buffer [assay buffer; 25 mmol/1 HEPES buffer, pH7.5 containing 0.5 mmol/1 EDTA, 0.05% Nonidet P-40, 0.01% sodium dodecyl sulfate (SDS)] and immediately used in the assay. Enzyme reactions were performed in 96-well plates with 100 μl of final volume containing […] fluorogenic peptide substrates. The substrates used were LLVY-AMC for chymotrypsin like activity, LLE-AMC for caspase-like activity and LRR-AMC for trypsin-like activity. Reactions were incubated at 37° C. for 1 hour and fluorescence was measured at 360/460 using a BioTek synergy HT plate reader (BioTek, Winooski, Vt.)."}, "WT and BR WM cells": {"tested_on": "WT and BR WM cells", "experiment": "Mitochondrial outer membrane permeability (TMRM), WM cell lines", "type": "cell-based, human", "conditions": "pre-treatment with pan-caspase inhibitor", "experimental": "Cells were treated with different agents for 48 hours and assessed for MOMP using tetramethylrhodamine methyl ester [TMRM] (Life Technologies). TMRM was directly added to the cell cultures at 100 nmol/1 concentrations and incubated at 37° C. in the dark for 15 minutes. At the end of the incubation, cells were washed twice with cold PBS containing 2% FBS and analyzed. The cells were washed for fluorescence (FL2) and analyzed by BD Accuri, the C6 flow cytometer and its software. Data from at least 20,000 events per sample were collected and analyzed. TMRM-negative (%) cells were calculated to determine % MOMP."}, "BCWM.1 cell line": {"tested_on": "BCWM.1 cell line", "experiment": "MTS viability assay, BCWM.1", "type": "cell-based, human", "experimental": "(§1) FIGS. 4A-4D show the characterization of BR WM models, established by subjecting WM cancer cell lines (n=3) chronic drug exposure. […] FIG. 4C is a graph plotting relative fluorescence units in an assay to examine PSMB5 enzyme function by flow cytometry.\n(§2) Twenty thousand cells/200 μl in quadruplicates were incubated with serially diluted b-AP15 (1-1000 nmol/l) in 96-well plates at 37° C. for 72 hours. MTS (3-(4,5-dimethylthiazol-2-yl)-5-(3-carboxymethoxyphenyl)-2-(4-sulfophenyl)-2H-tetrazolium) reagent (Molecular Probes, Eugene, Oreg.) was added at 40 μl/well and the plates were further incubated at 37° C. for 3 hours and the developed color was read at 490 nm using a BioTek synergy HT plate reader against blanks with no cells."}, "BCWM.1/BR": {"tested_on": "BCWM.1/BR", "experiment": "MTS viability assay, BCWM.1/BR", "type": "cell-based, human", "experimental": "as §1, §2"}, "β5/PSMB5": {"target": "β5/PSMB5 (Homo sapiens, UniProt P28074)", "experiment": "26S proteasome activity, Suc-LLVY-AMC cleavage, WT and BR plasma cell cancer cells", "type": "biochemical", "conditions": "in the presence of bortezomib", "experimental": "FIGS. 3A-3C are a series of graphs showing that bortezomib resistance is associated with increased proteasomal enzymatic activity.\nStudies were performed to investigate whether an increase in β1i and β5 proteins corresponded with increased protease activity. WT and BR cancer cells were incubated with β1i specific (Ac-PAL-AMC substrate) and β5 specific (Suc-LLVY-AMC substrate) fluorogenic peptides (condition details in FIG. 3 description above). β5 chymotryptic activity (primary target of bortezomib) was assessed first and found in BR cells."}, "RPCI-WM1": {"tested_on": "RPCI-WM1", "experiment": "MTS viability assay, RPCI-WM1", "type": "cell-based, human", "conditions": "Homo sapiens, MTS assay", "experimental": "as §2"}, "[2]": {"tested_on": "BR human MM and WM cell lines", "experiment": "Growth insensitivity of BR cell lines vs WT counterparts", "type": "cell-based", "conditions": "BR cell lines compared to respective WT counterparts", "description": "(§3) To investigate the mechanism of induction of bortezomib resistance, preclinical models of acquired bortezomib resistance (BR) were developed using human MM and WM cell lines."}, "RPCI-WM1/BR": {"tested_on": "RPCI-WM1/BR", "experiment": "MTS viability assay, RPCI-WM1/BR", "type": "cell-based, human", "conditions": "Homo sapiens, MTS assay", "experimental": "as §2"}, "MWCL-1 cells": {"tested_on": "MWCL-1 cells", "experiment": "MTS viability assay, MWCL-1", "type": "cell-based, human", "conditions": "Homo sapiens, MTS assay", "experimental": "as §2"}, "MCL patients": {"tested_on": "MCL patients", "conditions": "bortezomib-based therapies; cited from earlier work"}, "OPM2 cell line (WT)": {"tested_on": "OPM2 cell line (WT)", "experiment": "MTS assay, OPM2 WT", "type": "cell-based", "conditions": "Homo sapiens, OPM-2", "description": "(§4) FIGS. 1A-1C show the characterization of bortezomib-resistance (BR) models, established by subjecting plasma cell cancer cell lines (n=6) chronic drug exposure. FIG. 1A is a graph plotting the results of an MTS assay for an OPM2 cell line (representative model).\nas §3"}, "OPM2 BR derivative": {"tested_on": "OPM2 BR derivative", "experiment": "MTS assay, OPM2 BR derivative", "type": "cell-based", "conditions": "Homo sapiens, OPM-2", "description": "as §4, §3"}, "[3]": {"tested_on": "treatment naïve MM patients", "conditions": "bortezomib-based therapies; cited from earlier work"}, "MWCL-1/BR": {"tested_on": "MWCL-1/BR", "experiment": "MTS viability assay, MWCL-1/BR", "type": "cell-based, human", "conditions": "Homo sapiens; MTS assay, MWCL-1/BR", "experimental": "as §2"}, "[4]": {"tested_on": "bortezomib or carfilzomib-resistant MM and WM cell lines", "experiment": "VLX1570-sensitivity screen (Celltiter Glo viability assay)", "type": "cell-based, human", "conditions": "bortezomib/carfilzomib-resistant tumor cells", "description": "FIG. 5 is a graph plotting sensitivity of bortezomib or carfilzomib-resistant tumor cells to drugs with a mechanism directed at targets upstream of the 20S proteasome. An inhibitor of the deubiquitinase (DUB) enzymes located in the 19S cap of the proteasome that are upstream of β5 and β1i, was used."}}, "note": "Entries after “also recorded” stand apart in the source; their conditions may differ. Peptide text beside a SMILES is read from it. * marks the point of attachment. Cbz = O=C(OCc1ccccc1)*; CH2F = FC*", "data": [{"smiles": "CC(C)C[C@H](NC(=O)[C@H](CCc1ccccc1)NC(=O)CN1CCOCC1)C(=O)N[C@@H](Cc1ccccc1)C(=O)N[C@@H](CC(C)C)C(=O)[C@@]1(C)CO1", "note": "[carfilzomib]", "values": [{"measurement": "chymotrypsin-like activity (LLVY) of the b5 subunit", "setting": "[1]", "result": "significantly diminished"}]}, {"smiles": "COC(=O)C[C@H](NC(=O)[C@H](C)NC(=O)[C@@H](NC(=O)OCc1ccccc1)C(C)C)C(=O)CF", "note": "[z.VAD.fmk] (Cbz-Val-Ala-Asp(OMe)-CH2F)", "values": [{"measurement": "MOMP in b-AP15 co-treated WM cells", "setting": "WT and BR WM cells", "result": "significantly reduced MOMP"}]}, {"smiles": "CC(C)C[C@H](NC(=O)[C@H](Cc1ccccc1)NC(=O)c1cnccn1)B(O)O", "note": "[bortezomib]", "values": [{"measurement": "IC50", "setting": "BCWM.1 cell line; Homo sapiens, BCWM1, MTS assay", "result": 0.018, "unit": "µM"}, {"measurement": "IC50", "setting": "BCWM.1 cell line; MTS assay", "result": 0.0114, "unit": "µM"}, {"measurement": "IC50", "setting": "BCWM.1/BR; Homo sapiens, BCWM1, MTS assay", "result": "> 1", "unit": "µM"}, {"measurement": "IC50", "setting": "BCWM.1/BR; MTS assay", "result": 0.72, "unit": "µM"}, {"measurement": "chymotryptic β5 activity", "setting": "β5/PSMB5", "result": "decreased; also recorded: inhibited the chymotryptic activity; also recorded: nearly abrogated"}, {"measurement": "IC50", "setting": "RPCI-WM1", "result": 0.027, "unit": "µM"}, {"measurement": "increase in growth insensitivity, BR vs WT", "setting": "[2]", "result": "> 100", "unit": "fold"}, {"measurement": "IC50", "setting": "RPCI-WM1/BR", "result": 0.125, "unit": "µM"}, {"measurement": "chymotrypsin-like activity (LLVY) of the b5 subunit", "setting": "[1]", "result": "significantly diminished"}, {"measurement": "IC50", "setting": "MWCL-1 cells", "result": 0.0166, "unit": "µM"}, {"measurement": "response rate", "setting": "MCL patients", "result": "about 75%"}, {"measurement": "IC50", "setting": "OPM2 cell line (WT)", "result": 0.00614, "unit": "µM"}, {"measurement": "IC50", "setting": "OPM2 BR derivative", "result": "> 0.05", "unit": "µM"}, {"measurement": "response rate", "setting": "[3]", "result": "about 100%"}, {"measurement": "IC50", "setting": "MWCL-1/BR", "result": 0.0652, "unit": "µM"}]}, {"smiles": "C=CC(=O)N1CC/C(=C\\c2ccc(F)c([N+](=O)[O-])c2)C(=O)/C(=C/c2ccc(F)c([N+](=O)[O-])c2)C1", "note": "[VLX1570]", "values": [{"measurement": "cytotoxicity", "setting": "[4]", "result": "comparable cytotoxicity"}]}]}
